The record followed here is patent US20230072683A1, “PYRIDO-PYRIMIDIN DERIVATIVES AND PHARMACEUTICAL COMPOSITION, FOR USE IN PREVENTING OR TREATING PI3 KINASE RELATED DISEASES, COMPRISING SAME AS ACTIVE INGREDIENT” (BORYUNG PHARMACEUTICAL CO., LTD, priority 2019, published 2023).

Test [1] has as its target PI3K-δ (PI3K(p1108/p857) (h)) (Homo sapiens, UniProt O00329). Put plainly: Evaluation of inhibitory activity against PI3K-δ (HTRF kinase assay). The class given is biochemical. The conditions noted are these: for inhibition at 0.01 µM: compound concentration 0.01 μM, read-out: EXP_VALUE(% Inhibition) PI3K-δ 0.01 μM; for inhibition at 0.1 µM: compound concentration 0.1 μM, read-out: EXP_VALUE(% Inhibition) PI3K-δ 0.1 μM. An outline of the steps: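 HTRF read-out (665/620 nm ratio ×10000) used Eu-labelled anti-GST, GST-tagged GRP1 PH domain and streptavidin-allophycocyanin after EDTA/PIP3 stop.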
A general note: Time-resolved FRET reads energy transfer from a long-lived donor to a nearby acceptor.

A further test addresses DNA-PK(h) (Homo sapiens, UniProt P78527). The test is described as follows: Evaluation of inhibitory activity against DNA-PK (HTRF kinase assay, GST-cMyc-p53 substrate). It counts as biochemical. The conditions noted are these: for inhibition at 0.01 µM: compound concentration 0.01 μM, read-out: EXP_VALUE(% Inhibition) DNA-PK(h) 0.01 μM; for inhibition at 0.1 µM: compound concentration 0.1 μM, read-out: EXP_VALUE(% Inhibition) DNA-PK(h) 0.1 μM. Put shortly: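 p53 Ser15 phosphorylation by human DNA-PK was measured by time-resolved FRET ratio (665/620 nm ×10000) using Eu-labelled anti-phospho-Ser15 and d2 anti-GST antibodies. Substrate GST-cMyc-p53 at 50 μM; Mg/ATP-initiated, 30 min at room temperature, EDTA stop.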

Sequence of PI3K-δ (PI3K(p1108/p857) (h)) (O00329 whole entry, the tested form may be a part): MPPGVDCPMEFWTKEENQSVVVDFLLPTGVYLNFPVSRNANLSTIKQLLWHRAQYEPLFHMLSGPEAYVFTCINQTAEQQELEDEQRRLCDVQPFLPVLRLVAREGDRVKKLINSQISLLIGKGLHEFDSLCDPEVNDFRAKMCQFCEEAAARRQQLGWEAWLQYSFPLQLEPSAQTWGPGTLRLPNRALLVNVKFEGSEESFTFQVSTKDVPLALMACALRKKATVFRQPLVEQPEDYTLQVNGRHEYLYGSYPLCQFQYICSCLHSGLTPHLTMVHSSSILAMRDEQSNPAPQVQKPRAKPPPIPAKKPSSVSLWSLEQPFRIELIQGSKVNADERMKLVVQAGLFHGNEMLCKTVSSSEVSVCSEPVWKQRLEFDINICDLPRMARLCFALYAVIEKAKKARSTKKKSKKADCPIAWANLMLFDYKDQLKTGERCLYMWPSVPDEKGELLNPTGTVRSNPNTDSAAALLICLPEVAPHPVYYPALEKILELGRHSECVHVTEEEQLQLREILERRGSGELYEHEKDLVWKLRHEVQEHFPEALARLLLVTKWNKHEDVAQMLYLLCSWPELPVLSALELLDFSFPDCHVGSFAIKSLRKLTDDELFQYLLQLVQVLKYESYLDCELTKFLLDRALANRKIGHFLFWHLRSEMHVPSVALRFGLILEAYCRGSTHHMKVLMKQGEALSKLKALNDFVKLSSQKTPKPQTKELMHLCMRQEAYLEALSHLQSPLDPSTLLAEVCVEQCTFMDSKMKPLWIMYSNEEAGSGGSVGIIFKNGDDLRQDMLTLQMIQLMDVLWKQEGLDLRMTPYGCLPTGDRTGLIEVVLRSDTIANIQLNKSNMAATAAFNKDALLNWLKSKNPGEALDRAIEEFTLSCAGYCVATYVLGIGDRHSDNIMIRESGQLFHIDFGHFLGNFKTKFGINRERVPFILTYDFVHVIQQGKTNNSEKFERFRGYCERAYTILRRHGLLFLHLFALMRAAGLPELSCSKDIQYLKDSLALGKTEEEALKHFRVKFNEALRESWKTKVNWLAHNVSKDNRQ
Sequence of PI3K-δ (PI3K(p1108/p857) (h)) (P27986 whole entry partner, the tested form may be a part): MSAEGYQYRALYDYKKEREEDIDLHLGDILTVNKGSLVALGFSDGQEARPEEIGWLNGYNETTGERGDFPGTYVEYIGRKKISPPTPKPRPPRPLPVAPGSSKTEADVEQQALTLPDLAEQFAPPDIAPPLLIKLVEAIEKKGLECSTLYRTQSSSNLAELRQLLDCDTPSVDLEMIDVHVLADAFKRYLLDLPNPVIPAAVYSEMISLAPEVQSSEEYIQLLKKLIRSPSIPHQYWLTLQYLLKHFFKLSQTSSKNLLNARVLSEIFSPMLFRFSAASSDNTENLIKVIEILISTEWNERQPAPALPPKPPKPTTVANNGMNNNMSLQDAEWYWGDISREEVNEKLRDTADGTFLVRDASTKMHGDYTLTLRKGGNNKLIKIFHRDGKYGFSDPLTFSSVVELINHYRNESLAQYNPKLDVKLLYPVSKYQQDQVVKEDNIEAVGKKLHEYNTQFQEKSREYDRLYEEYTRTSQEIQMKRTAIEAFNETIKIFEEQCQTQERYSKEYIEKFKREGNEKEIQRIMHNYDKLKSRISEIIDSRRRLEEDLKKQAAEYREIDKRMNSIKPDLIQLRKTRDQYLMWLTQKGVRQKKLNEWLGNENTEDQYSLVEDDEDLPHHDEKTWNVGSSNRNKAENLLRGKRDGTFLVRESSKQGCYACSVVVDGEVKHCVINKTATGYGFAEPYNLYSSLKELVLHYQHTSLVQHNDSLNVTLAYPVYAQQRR

Take `C[C@H](Nc1ncnc2[nH]ccc(=O)c12)c1c(Cl)c2cccc(C(=O)NC(C)(C)C)c2c(=O)n1-c1ccccc1` [Example 285, (S)—N-(tert-butyl)-4-chloro-1-oxo-3-(1-((5-oxo-5,8-dihydropyrido[2,3-d]pyrimidin-4-yl)amino)ethyl)-2-phenyl-1,2-dihydroisoquinoline-8-carboxamide]: the inhibition at 0.01 µM in test [1] came out at 22%; at DNA-PK(h), 15%.

`C[C@H](Nc1ncnc2[nH]ccc(=O)c12)c1c(Cl)c2cccc(C(=O)N3CCOCC3)c2c(=O)n1-c1ccccc1` [Example 286, (S)-4-((1-(4-chloro-8-(morpholine-4-carbonyl)-1-oxo-2-phenyl-1,2-dihydroisoquinolin-3-yl)ethyl)amino)pyrido[2,3-d]pyrimidin-5(8H)-one]: the values for the inhibition at 0.01 µM (in test [1]; at DNA-PK(h)) were 52% and 23%, respectively.

`C[C@H](Nc1ncnc2[nH]ccc(=O)c12)c1c(Cl)c2cccc(-c3ncc[nH]3)c2c(=O)n1-c1ccccc1` [Example 287, (S)-4-((1-(4-chloro-8-(1H-imidazol-2-yl)-1-oxo-2-phenyl-1,2-dihydroisoquinolin-3-yl)ethyl)amino)pyrido[2,3-d]pyrimidin-5(8H)-one]: the inhibition at 0.01 µM stood at 38% in test [1] and 28% on DNA-PK(h).

As for `Cc1nc(-c2cccc3c(Cl)c([C@H](C)Nc4ncnc5[nH]ccc(=O)c45)n(-c4ccccc4)c(=O)c23)[nH]c1C` [Example 288, (S)-4-((1-(4-chloro-8-(4,5-dimethyl-1H-imidazol-2-yl)-1-oxo-2-phenyl-1,2-dihydroisoquinolin-3-yl)ethyl)amino)pyrido[2,3-d]pyrimidin-5(8H)-one], the results for the inhibition at 0.01 µM (in test [1]; at DNA-PK(h)) were 28% and 8%, respectively.

In the case of `C[C@H](Nc1ncnc2[nH]ccc(=O)c12)c1c(Cl)c2cccc(C3=NC(C)(C)CO3)c2c(=O)n1-c1ccccc1` [Example 289, (S)-4-((1-(4-chloro-8-(4,4-dimethyl-4,5-dihydrooxazol-2-yl)-1-oxo-2-phenyl-1,2-dihydroisoquinolin-3-yl)ethyl)amino)pyrido[2,3-d]pyrimidin-5(8H)-one], the figures for the inhibition at 0.01 µM (in test [1]; on DNA-PK(h)) were 10% and 27%, respectively.

Consider `C[C@H](Nc1ncnc2[nH]ccc(=O)c12)c1c(Cl)c2cccc(C(=O)O)c2c(=O)n1-c1ccccc1` [Example 290, (S)-4-chloro-1-oxo-3-(1-((5-oxo-5,8-dihydropyrido[2,3-d]pyrimidin-4-yl)amino)ethyl)-2-phenyl-1,2-dihydroisoquinoline-8-carboxylic acid], for which, in test [1], the inhibition at 0.01 µM amounted to 80% and the inhibition at 0.1 µM was 102%. In addition, at DNA-PK(h), the inhibition at 0.01 µM was determined as 39% and the inhibition at 0.1 µM turned out to be 76%.

On to `C[C@H](Nc1ncnc2[nH]ccc(=O)c12)c1c(Cl)c2cccc(C(N)=O)c2c(=O)n1-c1ccccc1` [Example 291, (S)-4-chloro-1-oxo-3-(1-((5-oxo-5,8-dihydropyrido[2,3-d]pyrimidin-4-yl)amino)ethyl)-2-phenyl-1,2-dihydroisoquinoline-8-carboxamide], for which, in test [1], the inhibition at 0.01 µM is 91% and the inhibition at 0.1 µM was 101%. Besides, on DNA-PK(h), the inhibition at 0.01 µM came to 31% and the inhibition at 0.1 µM amounted to 78%.

Consider `CCOC(=O)c1cccc2c(Cl)c([C@H](C)Nc3ncnc4[nH]ccc(=O)c34)n(-c3ccccc3)c(=O)c12` [Example 292, ethyl(S)-4-chloro-1-oxo-3-(1-((5-oxo-5,8-dihydropyrido[2,3-d]pyrimidin-4-yl)amino)ethyl)-2-phenyl-1,2-dihydroisoquinoline-8-carboxylate], for which the inhibition at 0.01 µM in test [1] turned out to be 99%; at DNA-PK(h), 79%. Further, the inhibition at 0.1 µM in test [1] is 112%; on DNA-PK(h) it was 99%.

As for `C[C@H](Nc1ncnc2[nH]ccc(=O)c12)c1c(Cl)c2cccc(-c3nc(N)nc(N)n3)c2c(=O)n1-c1ccccc1` [Example 293, (S)-4-((1-(4-chloro-8-(4,6-diamino-1,3,5-triazin-2-yl)-1-oxo-2-phenyl-1,2-dihydroisoquinolin-3-yl)ethyl)amino)pyrido[2,3-d]pyrimidin-5(8H)-one], the inhibition at 0.01 µM in test [1] worked out at 24%; at DNA-PK(h) it was 1%.

Consider `C[C@H](Nc1ncnc2[nH]ccc(=O)c12)c1c(Cl)c2cccc(N)c2c(=O)n1-c1ccccc1` [Example 294, (S)-4-((1-(8-amino-4-chloro-1-oxo-2-phenyl-1,2-dihydroisoquinolin-3-yl)ethyl)amino)pyrido[2,3-d]pyrimidin-5(8H)-one], for which the inhibition at 0.01 µM in test [1] turned out to be 65%; at DNA-PK(h), 49%.

Take `C[C@H](Nc1ncnc2[nH]ccc(=O)c12)c1c(Cl)c2cccc(NC(=O)C(C)(C)C)c2c(=O)n1-c1ccccc1` [Example 295, (S)—N-(4-chloro-1-oxo-3-(1-((5-oxo-5,8-dihydropyrido[2,3-d]pyrimidin-4-yl)amino)ethyl)-2-phenyl-1,2-dihydroisoquinolin-8-yl) pivalamide]: the results for the inhibition at 0.01 µM (in test [1]; at DNA-PK(h)) were 24% and 56%, respectively.

As for `CC(=O)Nc1cccc2c(Cl)c([C@H](C)Nc3ncnc4[nH]ccc(=O)c34)n(-c3ccccc3)c(=O)c12` [Example 296, (S)—N-(4-chloro-1-oxo-3-(1-((5-oxo-5,8-dihydropyrido[2,3-d]pyrimidin-4-yl)amino)ethyl)-2-phenyl-1,2-dihydroisoquinolin-8-yl) acetamide], the inhibition at 0.01 µM in test [1] was found to be 46%; at DNA-PK(h) it was 30%.

Take `CCCCC(=O)Nc1cccc2c(Cl)c([C@H](C)Nc3ncnc4[nH]ccc(=O)c34)n(-c3ccccc3)c(=O)c12` [Example 297, (S)—N-(4-chloro-1-oxo-3-(1-((5-oxo-5,8-dihydropyrido[2,3-d]pyrimidin-4-yl)amino)ethyl)-2-phenyl-1,2-dihydroisoquinolin-8-yl)pentanamide]: the inhibition at 0.01 µM was determined as 9% in test [1] and 45% on DNA-PK(h).

As to `C[C@H](Nc1ncnc2[nH]ccc(=O)c12)c1c(Cl)c2cccc(NC(=O)C3CCC3)c2c(=O)n1-c1ccccc1` [Example 298, (S)—N-(4-chloro-1-oxo-3-(1-((5-oxo-5,8-dihydropyrido[2,3-d]pyrimidin-4-yl)amino)ethyl)-2-phenyl-1,2-dihydroisoquinolin-8-yl)cyclobutanecarboxamide], the results for the inhibition at 0.01 µM (in test [1]; at DNA-PK(h)) were 11% and 50%, respectively.

On to `C[C@H](Nc1ncnc2[nH]ccc(=O)c12)c1c(Cl)c2cccc(NC(=O)c3ccccc3)c2c(=O)n1-c1ccccc1` [Example 299, (S)—N-(4-chloro-1-oxo-3-(1-((5-oxo-5,8-dihydropyrido[2,3-d]pyrimidin-4-yl)amino)ethyl)-2-phenyl-1,2-dihydroisoquinolin-8-yl)benzamide], for which the inhibition at 0.01 µM in test [1] is 13%; at DNA-PK(h) it was 17%.

`C[C@H](Nc1ncnc2[nH]ccc(=O)c12)c1c(Cl)c2cccc(NS(C)(=O)=O)c2c(=O)n1-c1ccccc1` [Example 300, (S)—N-(4-chloro-1-oxo-3-(1-((5-oxo-5,8-dihydropyrido[2,3-d]pyrimidin-4-yl)amino)ethyl)-2-phenyl-1,2-dihydroisoquinolin-8-yl) methanesulfonamide]: the inhibition at 0.01 µM in test [1] amounted to 63%; at DNA-PK(h), 44%.

For `C[C@H](Nc1ncnc2[nH]ccc(=O)c12)c1c(Cl)c2cccc(NS(=O)(=O)C3CC3)c2c(=O)n1-c1ccccc1` [Example 301, (S)—N-(4-chloro-1-oxo-3-(1-((5-oxo-5,8-dihydropyrido[2,3-d]pyrimidin-4-yl)amino)ethyl)-2-phenyl-1,2-dihydroisoquinolin-8-yl)cyclopropanesulfonamide], the inhibition at 0.01 µM in test [1] turned out to be 41%; at DNA-PK(h) it was 14%.

For `C[C@H](Nc1ncnc2[nH]ccc(=O)c12)c1c(Cl)c2cccc(NS(=O)(=O)CC(F)(F)F)c2c(=O)n1-c1ccccc1` [Example 302, (S)—N-(4-chloro-1-oxo-3-(1-((5-oxo-5,8-dihydropyrido[2,3-d]pyrimidin-4-yl)amino)ethyl)-2-phenyl-1,2-dihydroisoquinolin-8-yl)-2,2,2-trifluoroethane-1-sulfonamide], the inhibition at 0.01 µM (in test [1]; on DNA-PK(h)) was 16% each time.

Consider `C[C@H](Nc1ncnc2[nH]ccc(=O)c12)c1c(Cl)c2cccc(NS(=O)(=O)c3ccc(F)cc3)c2c(=O)n1-c1ccccc1` [Example 303, (S)—N(4-chloro-1-oxo-3-(1-((5-oxo-5,8-dihydropyrido[2,3-d]pyrimidin-4-yl)amino)ethyl)-2-phenyl-1,2-dihydroisoquinolin-8-yl)-4-fluorobenzenesulfonamide], for which the inhibition at 0.01 µM was 12% in test [1] and 6% at DNA-PK(h).

Turning to `C[C@H](Nc1ncnc2[nH]ccc(=O)c12)c1c(Cl)c2cccc(C#Cc3cccs3)c2c(=O)n1-c1ccccc1` [Example 304, (S)-4-((1-(4-chloro-1-oxo-2-phenyl-8-(thiophen-2-ylethynyl)-1,2-dihydroisoquinolin-3-yl)ethyl)amino)pyrido[2,3-d]pyrimidin-5(8H)-one], in test [1], the inhibition at 0.01 µM was determined as 71% and the inhibition at 0.1 µM turned out to be 101%. At DNA-PK(h), the inhibition at 0.01 µM is 27% and the inhibition at 0.1 µM was determined as 71%.

What is called inhibition is the relative decrease from the control value, in per cent.
